Type in all cases: cell-based
One assay has as its target T1, VEGFR-2 (Homo sapiens, UniProt P35968).
T1 construct: endogenous in cells; host or cells: primary HUVEC
Put plainly: VEGF-165 induced phosphorylation of VEGF-Receptor on HUVEC. As to conditions: HUVEC preincubated 60 min, VEGF165 25 ng/mL 2 min; read-out: VEGFR-Phosphorylation inhibition IC50.

Assay [1] deals with Human neutrophils. Put plainly: Neutrophil adhesion under static conditions. Particulars: fMLP-stimulated adhesion to fibrinogen; method: 40 μM and 80 μM, concentration of the value not stated. A digest of the protocol: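 Donor buffy-coat neutrophils (3×10^6/ml, PBS with Ca/Mg, 10% FCS, pH 7.2) preincubated 30 min at 37° C with 40 μM or 80 μM compound, then stimulated 1 min at 37° C with 1 nM fMLP on fibrinogen-coated glass. Adherent cells fixed and counted by computer; mean ± SD, unpaired t-test.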

In a further assay the target is T2, FGF-1 (Homo sapiens, UniProt P05230).
T2 construct: purchased Peprotech 100-17A
T2 sequence (P05230 whole entry): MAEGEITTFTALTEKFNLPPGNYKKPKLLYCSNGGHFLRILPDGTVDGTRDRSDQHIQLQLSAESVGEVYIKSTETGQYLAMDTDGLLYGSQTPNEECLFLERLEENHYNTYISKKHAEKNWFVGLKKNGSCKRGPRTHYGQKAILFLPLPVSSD
The experiment in a line: FGF-1 induced sprouting of HUVEC, spheroid-based cellular angiogenesis assay. As to conditions: FGF-1 25 ng/mL preincubated with compound, 24 h. A digest of the protocol:
(§1)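 Spheroids of 400 HUVEC (passage 3–4), embedded in collagen gel, were stimulated with FGF-1, FGF-2 or VEGF-A (final 25 ng/mL) preincubated 30 min at 37°C with compound (final 1.56–100 μM).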

The next assay addresses T3, VEGF-A (Homo sapiens, UniProt P15692).
T3 construct: purchased ProQinase GmbH
T3 sequence (P15692 27-191 isoform P15692-4): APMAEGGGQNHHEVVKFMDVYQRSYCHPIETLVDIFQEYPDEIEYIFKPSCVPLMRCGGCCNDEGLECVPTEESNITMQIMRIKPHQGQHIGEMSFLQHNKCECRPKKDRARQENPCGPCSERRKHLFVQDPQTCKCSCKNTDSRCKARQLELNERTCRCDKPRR
The experiment in a line: VEGF-A induced sprouting of HUVEC, spheroid-based cellular angiogenesis assay. Particulars: VEGF-A 25 ng/mL preincubated with compound, 24 h, read-out: VEGF-A1 IC50. As for the experimental part: Aim of this in vitro method is to assess compounds effects on FGF-2, FGF-1, or VEGF-A induced sprouting of human umbilical vein endothelial cells (HUVEC) in the spheroid-based cellular angiogenesis assay. Before adding the growth factors to the cells, they were preincubated with the compound. Sunitinib was tested as a control (without preincubation).
IC50 values determined for the tested compounds are expressed in microM [μM] and the values for the inhibition of FGF-1, FGF2 and VEGF-A induced growth (sprouting) are listed after each compound in the examples after chemical characterization.
Sprouting test was performed on the compounds dissolved in DMSO to reach 100-fold concentrated stock solutions and dissolved in culture media. Sunitinib as reference compound was provided by ProQinase GmbH. Growth factors were purchased from rhFGF-basic (FGF-2), Peprotech, New Jersey, USA, #100-18C, Lot #0415571; rhFGF-acidic (FGF-1), Peprotech, New Jersey, USA, #100-17A, Lot #031207; hVEGF-A165 (ProQinase GmbH, Freiburg, Germany; 05.02.2010) were used for stimulation of HUVEC cells growth.
Test system: Endothelial cells from human umbilical vein (HUVEC) from pooled donors were stored frozen with 70% medium, 20% FCS, 10% DMSO at about 1×10^6 cells/ampoule. HUVEC cells, primary human umbilical vein endothelial cells (PromoCell, Heidelberg, Germany), were used after passage 3 to 4. Morphology of the cells are adherent, cobblestone-like growing as monolayer and were cultured in endothelial cell growth and basal medium (ECGM/ECBM, PromoCell). The subculture was split 1:3; every 3-5 days, seed out at ca. 1×10^4 cells/cm^2 and incubated at 37° C. with 5% CO2 with a doubling time 24-48 hours
Dilution of test compounds: 100× concentrated solutions (concerning to the final assay concentrations) of each test compound were prepared with the appropriate solvent (in DMSO or in water). These 100×compound solutions were further diluted in endothelial cell growth and basal medium (ECBM) 1:7.5 to get a 13.33× concentrated solution. 75 μl of the 13.33×solution was subsequently mixed with 25 μl of 40× concentrated stimulus (solved in ECBM), resulting in a 10×concentrated stimulus/compound mixture. This mixture (100 μl) was incubated for 30 min at 37° C. and then added to 900 μl gel, containing the HUVEC spheroids (resulting in the final assay concentration).
Test method: the experiments were pursued in modification of the originally published protocol (Korff and Augustin: J Cell Sci 112: 3249-58, 1999). In brief, spheroids were prepared as described (Korff and Augustin: J Cell Biol 143: 1341-52, 1998) by pipetting 400 HUVEC in a hanging drop on plastic dishes to allow overnight spheroid aggregation. 50 HUVEC spheroids were then seeded in 0.9 ml of a collagen gel and pipetted into individual wells of a 24 well plate to allow polymerization. The test compounds were preincubated with the growth factors (FGF-1, FGF-2 or VEGF-A final concentration 25 ng/mL) in a 10-fold concentrated solution and subsequently, 100 μl of this solution was added on top of the polymerized gel. All compounds were diluted in solvent (DMSO or water) as 100×stocks first (which means 100×stocks of each final assay concentration were prepared in solvent). Subsequently, these stocks were further diluted in medium (resulting in the 13.33×stocks of each final assay concentration) with final concentrations tested: 100, 50, 25, 12.5, 6.25, 3.13 and 1.56×10^−6 M). Plates were incubated at 37° C. for 24 hours and fixed by adding 4% PFA (Roth, Karlsruhe, Germany).
Quantification of growth factor inhibition: sprouting intensity of HUVEC spheroids treated with the growth factor and the inhibitors were quantitated by an image analysis system determining the cumulative sprout length per spheroid (CSL).

The next assay concerns the target T4, FGF-2 (Homo sapiens, UniProt P09038).
T4 construct: purchased Peprotech 100-18C
Put plainly: FGF-2 induced sprouting of HUVEC, spheroid-based cellular angiogenesis assay. As to conditions: FGF-2 25 ng/mL preincubated with compound, 24 h. A digest of the protocol:
as §1

Assay [2] deals with Human neutrophils. Put plainly: Inhibition of ROS production in human neutrophils (isoluminol chemiluminescence). Particulars: Homo sapiens, Neutrophil, fMLP+TNF-α stimulated PMN. A digest of the protocol:
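Neutrophils from healthy-donor buffy coats (3×10^6/ml in HBSS with Ca/Mg) pre-incubated 30 min at 37° C with compound (0.1–10 μM), primed with TNF-α 20 ng/ml for 10 min, then added to fibrinogen-coated wells. Isoluminol/HRP chemiluminescence recorded every 25 sec for 250 sec after fMLP (1 μM), background-subtracted.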

The record followed here is patent US20230150951A1, “2,5- OR 2,6-DISUBSTITUTED HYDROQUINONE DERIVATIVES WITH AT LEAST ONE CARBOXY, SULFO OR AMIDO GROUP USEFUL AS MEDICAMENTS” (OM PHARMA SA, priority 2020, published 2023).

Structures are written as SMILES. Some results are limits rather than exact numbers.

A word on the IC50: it is the concentration at which inhibition is half-maximal. Usually inhibition stands for the relative decrease from the control value, in per cent. A high value points to a strong effect.

T4 sequence (P09038 134-288): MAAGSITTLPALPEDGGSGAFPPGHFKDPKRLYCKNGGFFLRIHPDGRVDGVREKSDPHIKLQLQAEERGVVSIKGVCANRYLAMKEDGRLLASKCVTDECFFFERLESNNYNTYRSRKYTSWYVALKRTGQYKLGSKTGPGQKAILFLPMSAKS
T1 sequence (P35968 20-1356): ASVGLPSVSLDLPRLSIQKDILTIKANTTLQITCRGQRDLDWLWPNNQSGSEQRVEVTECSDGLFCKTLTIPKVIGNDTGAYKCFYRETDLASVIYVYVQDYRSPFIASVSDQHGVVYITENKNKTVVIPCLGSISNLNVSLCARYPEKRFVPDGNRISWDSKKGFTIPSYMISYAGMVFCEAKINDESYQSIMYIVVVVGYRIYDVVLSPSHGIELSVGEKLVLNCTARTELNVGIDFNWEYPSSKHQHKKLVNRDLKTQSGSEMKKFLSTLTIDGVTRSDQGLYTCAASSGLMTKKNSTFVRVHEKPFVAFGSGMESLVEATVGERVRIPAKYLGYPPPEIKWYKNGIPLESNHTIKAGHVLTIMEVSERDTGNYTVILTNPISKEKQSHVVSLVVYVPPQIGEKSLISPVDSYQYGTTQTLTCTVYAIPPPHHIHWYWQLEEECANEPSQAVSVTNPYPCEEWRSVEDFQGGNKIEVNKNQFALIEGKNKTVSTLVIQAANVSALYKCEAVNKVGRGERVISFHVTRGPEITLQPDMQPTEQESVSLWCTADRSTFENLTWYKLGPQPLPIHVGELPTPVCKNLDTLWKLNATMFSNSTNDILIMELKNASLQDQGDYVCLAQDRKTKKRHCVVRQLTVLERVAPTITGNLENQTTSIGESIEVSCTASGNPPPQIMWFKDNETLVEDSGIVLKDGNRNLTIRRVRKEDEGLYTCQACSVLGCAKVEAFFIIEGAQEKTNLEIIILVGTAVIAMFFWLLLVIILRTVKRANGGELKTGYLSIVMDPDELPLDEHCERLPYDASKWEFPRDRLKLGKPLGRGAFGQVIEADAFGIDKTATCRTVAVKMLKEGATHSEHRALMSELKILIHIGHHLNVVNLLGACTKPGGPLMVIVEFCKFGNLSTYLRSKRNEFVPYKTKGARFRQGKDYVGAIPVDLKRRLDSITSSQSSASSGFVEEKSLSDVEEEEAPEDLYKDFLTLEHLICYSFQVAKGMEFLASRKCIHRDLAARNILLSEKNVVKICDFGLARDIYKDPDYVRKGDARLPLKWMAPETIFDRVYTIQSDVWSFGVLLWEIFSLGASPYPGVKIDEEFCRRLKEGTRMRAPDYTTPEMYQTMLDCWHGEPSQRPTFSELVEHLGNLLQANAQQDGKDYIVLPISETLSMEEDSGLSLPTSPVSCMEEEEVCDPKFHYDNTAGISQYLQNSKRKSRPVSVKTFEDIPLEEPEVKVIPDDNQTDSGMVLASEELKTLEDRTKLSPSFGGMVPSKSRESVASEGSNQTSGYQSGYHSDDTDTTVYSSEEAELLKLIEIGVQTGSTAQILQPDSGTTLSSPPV

Regarding `O=C(O)c1ccc(NC(=O)c2cc(O)cc(C(=O)O)c2O)cc1C(=O)O` [IIa-014a, 4-(3-carboxy-2,5-dihydroxybenzamido)phthalic acid], the IC50 amounted to 17.6 µM on VEGFR-2, 40 µM at FGF-1, 91 µM at VEGF-A and 61 µM at FGF-2. This compound came in with a Neutrophil adhesion inhibition in the assay on Human neutrophils [1] of 21.5%. Moreover, in the assay on Human neutrophils [2], the inhibition at 0.3 µM was 73.9%.

For `O=C(O)c1cc(O)cc(C(=O)NCc2ccc(O)c(O)c2)c1O` [IIa-035a, 3-(3,4-Dihydroxyphenylmethylaminocarbonyl)-2,5-dihydroxybenzoic acid], the IC50 at VEGFR-2 is 0.52 µM; at FGF-1 it was 16 µM; at VEGF-A, 45 µM; on FGF-2 it was 61 µM; in the assay on Human neutrophils [2] it was 1 µM. Further, in the assay with Human neutrophils [1], the Neutrophil adhesion inhibition came out at 36.67%. Also, testing at 0.3 µM with Human neutrophils [2] gave an inhibition of 77%.

As to `CCOC(=O)c1cc(O)c(C(=O)Nc2ccccc2C(=O)OCC)cc1O` [Ia-001a-E2, ethyl 4-(2-(ethoxycarbonyl)phenylaminocarbonyl)-2,5-dihydroxybenzoate], the IC50 on VEGFR-2 was 1.25 µM; at FGF-1 it was 9.2 µM; at VEGF-A it was 123 µM; on FGF-2, ≥ 200 µM; in the assay with Human neutrophils [2] it was 2.58 µM. In the assay on Human neutrophils [1], the Neutrophil adhesion inhibition is given as 50.5%. At 0.3 µM the inhibition in the assay with Human neutrophils [2] was 51.5%.

Regarding `O=C(O)Cc1ccccc1NC(=O)c1cc(O)cc(C(=O)O)c1O` [IIa-034a, 3-(2-(carboxymethyl)phenylaminocarbonyl)-2,5-dihydroxybenzoic acid], the IC50 on VEGFR-2 was ≥ 100 µM; at FGF-1, 22 µM; at VEGF-A, 86 µM; at FGF-2, 5.7 µM. For the same compound, the Neutrophil adhesion inhibition in the assay on Human neutrophils [1] is listed as 26.58%. Besides, at 0.3 µM the inhibition with Human neutrophils [2] was 69.2%.

For `O=C(O)c1cc(NC(=O)c2cc(O)cc(C(=O)O)c2O)cc(NC(=O)c2cc(O)cc(C(=O)O)c2O)c1` [IIb-010a, 3,5-Bis(2,5-dihydroxy-3-carboxybenzoylamino)benzoic acid], in the assay with Human neutrophils [1], the Neutrophil adhesion inhibition was 59.84%. Moreover, the IC50 at FGF-1 was ≥ 200 µM; on VEGF-A, 28 µM; at FGF-2, 102 µM. 0.3 µM produced 81.9% inhibition with Human neutrophils [2].

With `CCOC(=O)c1cc(O)c(C(=O)Nc2cnccc2C(=O)OCC)cc1O` [Ia-023a-E2, ethyl 3-(4-(ethoxycarbonyl)-2,5-dihydroxybenzamido)isonicotinate], the values for the IC50 on VEGFR-2, on VEGF-A and on FGF-2 were 6.6 µM, 141 µM and 76 µM, respectively. The compound also yielded a Neutrophil adhesion inhibition in the assay with Human neutrophils [1] of 34%. For the same compound, in the assay on Human neutrophils [2], the inhibition at 0.3 µM turned out to be 69.5%.

As for `O=C(O)Cc1cc(O)c(C(=O)Nc2ccccc2C(=O)O)cc1O` [IIIa-001a, 2-(4-(carboxymethyl)-2,5-dihydroxybenzamido)benzoic acid], the Neutrophil adhesion inhibition in the assay on Human neutrophils [1] stood at 30.4%. Also, the IC50 on FGF-1 turned out to be 62 µM; on VEGF-A, 32 µM; on FGF-2, 10 µM. Also, 0.3 µM produced 74.8% inhibition with Human neutrophils [2].

For `O=C(O)c1cc(O)c(C(=O)Nc2ccc(O)cc2C(=O)O)cc1O` [Ia-006a, 4-(2-carboxy-4-hydroxyphenylaminocarbonyl)-2,5-dihydroxybenzoic acid], the IC50 on VEGFR-2 was 11.8 µM; on FGF-1 it was 89 µM; at VEGF-A it was ≥ 100 µM; with Human neutrophils [2], 1.2 µM. The same compound displayed a Neutrophil adhesion inhibition with Human neutrophils [1] of 25.33%. This compound also gave an inhibition at 0.3 µM with Human neutrophils [2] of 60.6%.

`CCOC(=O)c1cc(OC(C)=O)c(C(=O)Nc2ccccc2-c2nnn[nH]2)cc1OC(C)=O` [Ia-001a-Tz-E1-A2, ethyl 4-(2-(1H-tetrazol-5-yl)phenylaminocarbonyl)-2,5-diacetoxybenzoate] registered a Neutrophil adhesion inhibition with Human neutrophils [1] of 98.2%. Also, the IC50 at FGF-1 was 60 µM; at VEGF-A it was ≥ 200 µM; on FGF-2 it was ≥ 200 µM. This compound registered an inhibition at 0.3 µM in the assay with Human neutrophils [2] of 49.9%.

As for `CCOC(=O)Cc1cc(O)c(C(=O)Nc2ccccc2C(=O)OC)cc1O` [IIIa-001a-E2, methyl 2-(4-(ethoxycarbonylmethyl)-2,5-dihydroxybenzamido)benzoate], the Neutrophil adhesion inhibition in the assay on Human neutrophils [1] stood at 44.46%. Besides, the IC50 on FGF-1 is ≥ 200 µM; at VEGF-A it was 43 µM; on FGF-2, 33 µM. Also, in the assay on Human neutrophils [2], the inhibition at 0.3 µM was 69.7%.

Turning to `O=C(O)c1cc(O)ccc1NC(=O)c1cc(O)cc(C(=O)O)c1O` [IIa-006a, 3-(2-carboxy-4-hydroxyphenylaminocarbonyl)-2,5-dihydroxybenzoic acid], the figures for the IC50 on VEGFR-2, at VEGF-A and at FGF-2 were 2.9 µM, 121 µM and 43 µM, respectively. Also, in the assay with Human neutrophils [1], the Neutrophil adhesion inhibition is recorded as 20.29%. Testing at 0.3 µM with Human neutrophils [2] gave an inhibition of 84.3%.

Take `COC(=O)c1cc(NC(=O)c2cc(O)c(C(=O)Nc3ccccc3-c3nnn[nH]3)cc2O)ccc1O` [Ic-001a-Tz/004a-E1, methyl 5-(4-(2-(1H-tetrazol-5-yl)phenylaminocarbonyl)-2,5-dihydroxybenzamido)-2-hydroxybenzoate]: the IC50 on VEGFR-2 was determined as 0.1 µM; at FGF-1, 104 µM; at VEGF-A it was 35 µM. Further, the Neutrophil adhesion inhibition with Human neutrophils [1] is recorded as 97.56%. The same compound returned an inhibition at 0.3 µM in the assay on Human neutrophils [2] of 74%.

In the case of `O=C(Nc1ccc(O)cc1C(=O)O)c1cc(O)c(C(=O)Nc2ccc(O)cc2C(=O)O)cc1O` [Ic-009a, 2-(2,5-dihydroxy-4-(4-hydroxy-2-carboxyphenylaminocarbonyl)benzamido)-5-hydroxy benzoic acid], in the assay on Human neutrophils [1], the Neutrophil adhesion inhibition was 72.21%. The IC50 on FGF-1 amounted to 32 µM; at VEGF-A, 208 µM; at FGF-2, 202 µM. In the assay with Human neutrophils [2], this compound yielded an inhibition at 0.3 µM of 72.8%.
